For series [1], the target named is Lck Kinase (Homo sapiens, UniProt P06239). Kind of series: Kinase panel (TABLE F), Lck Kinase. It is filed as biochemical.
Series [2] has as its target Lyn Kinase (Homo sapiens, UniProt P07948). Kind of series: Kinase panel (TABLE F), Lyn Kinase. It is filed as biochemical.
The test system of series [3] is Lung_H460. Kind of series: Cell proliferation assay (ATPlite), H460. The note with it: Homo sapiens, NCI-H460; TABLE C; 72 hours, 0.5% fetal bovine serum, ATP content; read-out: IC50 grading, Lung_H460. It is filed as cell-based. Here is the method: (§1) A representative number of compounds were assayed against several different cell lines using the cell proliferation assay:
(§2) Cell Proliferation Assay:
(§3) Cancer cell lines were plated at 5,000 to 10,000 per well in 96-well flatted bottomed plates with various concentration of compounds. The cells were incubated with compounds for 72 hours in the presence of 0.5% of fetal bovine serum. Growth inhibition was accessed by adenosine triphosphate (ATP) content assay using Perkin Elmer ATPlite kit. ATPlite is an ATP monitoring system based on firefly luciferase. Briefly, 25 μl of mammalian cell lysis solution was added to 50 μl of phenol red-free culture medium per well to lyse the cells and stabilize the ATP. 25 μl of substrate solution was then added to the well and subsequently the luminescence was measured.
(In general: In ATP-based viability assays light output follows the ATP content of the culture.)

Series [4] concerns Lung_H2122. Kind of series: Cell proliferation assay (ATPlite), H2122. It is filed as cell-based. The note with it: Homo sapiens, NCI-H2122; TABLE C; 72 hours, 0.5% fetal bovine serum, ATP content; read-out: IC50 grading, Lung_H2122. Here is the method:
as §1, §2, §3

Series [5] relates to Pancreas_MiaPaCa2. Kind of series: Cell proliferation assay (ATPlite), MiaPaCa2. The format is cell-based. To be noted: Homo sapiens, MIA PaCa-2; TABLE C; 72 hours, 0.5% fetal bovine serum, ATP content; read-out: IC50 grading, Pancreas_MiaPaCa2. How it is done:
as §1, §2, §3

Series [6] concerns Pancreas_PANC1. Kind of series: Cell proliferation assay (ATPlite), PANC1. It is filed as cell-based. The note with it: Homo sapiens, PANC-1; TABLE C; 72 hours, 0.5% fetal bovine serum, ATP content; read-out: IC50 grading, Pancreas_PANC1. Here is the method: as §1, §2, §3
Series [7] concerns Breast_SkBr3 (SKBr3, breast carcinoma). The series is described as follows: Cell proliferation assay (ATPlite), SkBr3. The format is cell-based. The note with it: Homo sapiens, SK-BR-3. Here is the method: as §1, §2
Cancer cell lines were plated at 5,000 to 10,000 per well in 96-well flatted bottomed plates with various concentration of compounds. […] Growth inhibition was accessed by adenosine triphosphate (ATP) content assay using Perkin Elmer ATPlite kit. ATPlite is an ATP monitoring system based on firefly luciferase. Briefly, 25 μl of mammalian cell lysis solution was added to 50 μl of phenol red-free culture medium per well to lyse the cells and stabilize the ATP. 25 μl of substrate solution was then added to the well and subsequently the luminescence was measured.

The conditions of series [8]: both, Sprague Dawley, rat, in vivo, iv, 8 days.
Experimental: The experimental methods used for the toxicity study below are described as follows:
2. Single dosing MTD in rats • a. Sprague Dawley, male and female, 240-260 gram • b. Dosing at 0, 25, 50, 100, 200 mg/kg, iv infusion 5 min • c. 6 rats per group (3 male and 3 female)
Stock solution is diluted with 30% CAPTISOL before use.

Data on 1 molecule can be found in patent US20080221132A1, “Multi-Functional Small Molecules as Anti-Proliferative Agents” (priority 2006, published 2008).

The inhibition is the change of the read-out against control, counted positive when it falls. Read a low inhibition as a weak effect. One may read the IC50 as the concentration that inhibits the measured activity by half.

Where two headings read alike, the source gives them in different places.

Lyn Kinase, sequence (P07948 whole entry): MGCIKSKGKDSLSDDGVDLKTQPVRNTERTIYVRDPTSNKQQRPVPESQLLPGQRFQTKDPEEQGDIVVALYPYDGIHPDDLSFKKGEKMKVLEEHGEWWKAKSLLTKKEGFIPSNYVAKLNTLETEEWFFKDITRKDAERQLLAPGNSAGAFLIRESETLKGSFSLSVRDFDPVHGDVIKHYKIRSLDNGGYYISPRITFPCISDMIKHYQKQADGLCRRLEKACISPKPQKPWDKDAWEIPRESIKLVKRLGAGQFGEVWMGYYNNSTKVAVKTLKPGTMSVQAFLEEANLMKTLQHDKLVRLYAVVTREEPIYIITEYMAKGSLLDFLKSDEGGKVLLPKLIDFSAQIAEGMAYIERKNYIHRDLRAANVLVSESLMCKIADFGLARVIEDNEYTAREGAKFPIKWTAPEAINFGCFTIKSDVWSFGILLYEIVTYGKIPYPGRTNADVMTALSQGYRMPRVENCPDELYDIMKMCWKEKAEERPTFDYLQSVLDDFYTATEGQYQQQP
Lck Kinase, sequence (P06239 whole entry): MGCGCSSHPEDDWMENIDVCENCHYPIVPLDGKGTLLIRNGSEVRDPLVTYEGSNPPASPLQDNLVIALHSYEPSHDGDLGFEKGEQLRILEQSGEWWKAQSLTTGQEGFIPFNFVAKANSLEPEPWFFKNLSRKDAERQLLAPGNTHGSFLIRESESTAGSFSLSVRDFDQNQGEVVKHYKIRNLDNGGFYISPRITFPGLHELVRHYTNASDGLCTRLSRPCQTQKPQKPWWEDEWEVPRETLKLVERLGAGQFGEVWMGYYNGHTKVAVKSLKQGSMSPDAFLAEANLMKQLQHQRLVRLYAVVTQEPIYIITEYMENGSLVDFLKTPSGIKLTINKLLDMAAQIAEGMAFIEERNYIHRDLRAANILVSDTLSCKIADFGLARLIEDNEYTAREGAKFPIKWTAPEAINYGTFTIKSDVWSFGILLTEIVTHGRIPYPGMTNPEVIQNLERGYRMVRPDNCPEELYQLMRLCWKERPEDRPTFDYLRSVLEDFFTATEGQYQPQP

Regarding `C#Cc1cccc(Nc2ncnc3cc(OC)c(OCCCCCCC(=O)NO)cc23)c1` [Compound 12], the figures for the inhibition at 5 µM in series [1] and in series [2] were 56% and 95%, respectively. The half-inhibitory concentration (IC50) in series [3] lay within 100 to 1000 nM; in series [4] it was 100 to 1000 nM; in series [5], 100 to 1000 nM; in series [6] it was 100 to 1000 nM; in series [7] (TABLE C, 72 hours, 0.5% fetal bovine serum, ATP content, read-out: IC50 grading, Breast_SkBr3), 100 to 1000 nM; in series [7] (TABLE D, Breast carcinoma, read-out: IC50 grading, SKBr3), 50 to 500 nM. Also, in series [8], the “dose without significant change in body weight” value is “up to 200 mg/kg”.
